This experiment concerns the target mu-opioid receptor (Homo sapiens, UniProt P35372). Nature of the experiment: biochemical. The conditions noted are these: read-out: GTP Activity.
Setting [1] is: […], class symbol combines EC50 and efficacy.

Read-outs that look alike come from different tables or passages of the source.

mu-opioid receptor, sequence (P35372 whole entry, species assumed): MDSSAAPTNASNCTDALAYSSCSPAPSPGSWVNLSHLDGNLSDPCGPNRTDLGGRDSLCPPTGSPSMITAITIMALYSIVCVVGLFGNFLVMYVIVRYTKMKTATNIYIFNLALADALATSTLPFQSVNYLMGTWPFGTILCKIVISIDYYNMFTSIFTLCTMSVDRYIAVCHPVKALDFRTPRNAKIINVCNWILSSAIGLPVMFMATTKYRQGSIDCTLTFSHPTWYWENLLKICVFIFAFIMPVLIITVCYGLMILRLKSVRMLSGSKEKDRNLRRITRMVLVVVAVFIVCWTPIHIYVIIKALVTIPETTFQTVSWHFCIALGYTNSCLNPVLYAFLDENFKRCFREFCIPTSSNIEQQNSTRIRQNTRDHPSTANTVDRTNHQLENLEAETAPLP

With `CCOc1cc(OC)cc(N2C(N)=C(c3nc4ccccc4[nH]3)C(=O)C2(C)C)c1` [compound 157], under “class symbols”, the EC50 was in the range of 100 to 1000 nM. Same read-out and setting: then `CCOc1cc(OCC)cc(N2C(N)=C(c3nc4ccccc4[nH]3)C(=O)C2(C)C)c1` [compound 158], with 1000 to 10000 nM.

`CC1(C)C(=O)C(c2nc3ccccc3[nH]2)=C(N)N1c1cc(Cl)cc(Cl)c1` [compound 159]: the EC50 (class symbols) fell in the range of 1000 to 10000 nM. Same read-out and setting: in the case of `COc1cccc(N2C(N)=C(c3nc4ccccc4[nH]3)C(=O)C2(C)C)c1` [compound 163] it was 1000 to 10000 nM.

Turning to `CN(C)c1cccc(N2C(N)=C(c3nc4ccccc4[nH]3)C(=O)C2(C)C)c1` [compound 164], under “class symbols”, the EC50 fell in the range of 1000 to 10000 nM.

Regarding `COc1ccc(OC)c(N2C(N)=C(c3nc4ccccc4[nH]3)C(=O)C2(C)C)c1` [compound 165], the EC50 (class symbols) lay in the range of 1000 to 10000 nM. As for `COc1cc(OC)cc(N2CC(=O)C(c3nc4cscc4[nH]3)=C2N)c1` [compound 173], where the note is “class symbols”, the EC50 lay in the range of 1000 to 10000 nM.

As to `[2H]C([2H])([2H])Oc1cc(OC([2H])([2H])[2H])cc(N2C(NC)=C(c3nc4ccccc4[nH]3)C(=O)C2(C)C)c1` [compound 175], the EC50 (class symbols) was less than 100 nM. On to `C=C1C(=O)C(c2nc3ccccc3[nH]2)=C(N)N1c1cc(OC)cc(OC)c1` [compound 177], for which the EC50 (class symbols) is 100 to 1000 nM. Same read-out and setting: in the case of `COc1cc(OC)cc(N2C(N)=C(c3nc4ccccc4[nH]3)C(=O)C23CCNC3)c1` (centres unmarked) [compound 182] it was 100 to 1000 nM; in that of `COc1cc(OC)cc(N2C(N)=C(c3nc4ccccc4[nH]3)C(=O)C23CCN(C)C3)c1` (centres unmarked) [compound 183], 1000 to 10000 nM; in that of `CC[C@@H]1C(=O)C(c2nc3ccccc3[nH]2)=C(NC)N1c1cc(OC)cc(OC)c1` [compound 184], 100 to 1000 nM. Still for that read-out and setting: in the case of `CCNC1=C(c2nc3ccccc3[nH]2)C(=O)[C@@H](CC)N1c1cc(OC)cc(OC)c1` [compound 186] it was 100 to 1000 nM; in that of `COc1cc(OC)cc(N2C(N)=C(c3nc4ccccc4[nH]3)C(=O)C23CNC3)c1` [compound 189], 1000 to 10000 nM. Still for that read-out and setting: then `COc1cc(OC)cc(N2C(N)=C(c3nc4ccccc4[nH]3)C(=O)C23CN(C)C3)c1` [compound 190], with 1000 to 10000 nM; and `COc1cc(OC)cc(N2C(N)=C(c3nc4ccccc4[nH]3)C(=O)C23COC3)c1` [compound 191], with 100 to 1000 nM. In the case of `CNC1=C(c2nc3ccccc3[nH]2)C(=O)C2(CNC2)N1c1cc(OC)cc(OC)c1` [compound 192], the EC50 (class symbols) was 100 to 1000 nM. The same measure, in the same setting: then `CNC1=C(c2nc3ccccc3[nH]2)C(=O)C2(CN(C)C2)N1c1cc(OC)cc(OC)c1` [compound 193], with 100 to 1000 nM; and `CNC1=C(c2nc3ccccc3[nH]2)C(=O)C2(COC2)N1c1cc(OC)cc(OC)c1` [compound 194], with less than 100 nM; and `COc1cc(OC)cc(-n2nc(Nc3ccccc3)c(-c3nc4ccccc4[nH]3)c2O)c1` [compound 197], with 1000 to 10000 nM. Turning to `CNC1=C(c2nc3ccccc3[nH]2)C(=O)C(C)(CO)N1c1cc(OC)cc(OC)c1` (centres unmarked) [compound 201], the EC50 under setting [1] is less than 100 nM. As to `COc1cc(OC)cc(N2C(N)=C(c3nc4ccccc4[nH]3)C(=O)C2CCCCN)c1` (centres unmarked) [compound 204], under setting [1], the EC50 fell in the range of 100 to 1000 nM. Still for that read-out and setting: then `COc1cc(OC)cc(N2C(N)=C(c3nc4ccccc4[nH]3)C(=O)[C@]23C[C@@H](O)C3)c1` [compound 206], with 100 to 1000 nM. Still for that read-out and setting: in the case of `COc1cc(OC)cc(N2C(N)=C(c3nc4ccccc4[nH]3)C(=O)C23CC(=O)C3)c1` [compound 207] it was 100 to 1000 nM. On the same count and under the same terms, in the case of `COc1cc(OC)cc(N2C(N)=C(c3nc4ccccc4[nH]3)C(=O)C2(C)c2ccc(O)cc2)c1` (centres unmarked) [compound 209] it was 1000 to 10000 nM; in that of `COc1cc(OC)cc(N2C(N)=C(c3nc4ccccc4[nH]3)C(=O)C2(C)c2cccc(O)c2)c1` (centres unmarked) [compound 210], 1000 to 10000 nM; in that of `CNC1=C(c2nc3ccccc3[nH]2)C(=O)[C@@](C)(CO)N1c1cc(OC)cc(OC)c1` [compound 211], 100 to 1000 nM.

On to `CNC1=C(c2nc3ccccc3[nH]2)C(=O)[C@](C)(CO)N1c1cc(OC)cc(OC)c1` [compound 212], for which, under setting [1], the EC50 is less than 100 nM.

For the molecule `COc1cc(OC)cc(N2C(N)=C(c3nc4ccccc4[nH]3)C(=O)C2(C)CCO)c1` (centres unmarked) [compound 216], under setting [1], the EC50 is 100 to 1000 nM. The same measure, in the same setting: then `CNC1=C(c2nc3ccccc3[nH]2)C(=O)C(C)(CCO)N1c1cc(OC)cc(OC)c1` (centres unmarked) [compound 217], with less than 100 nM; and `COCCC1(C)C(=O)C(c2nc3ccccc3[nH]2)=C(N)N1c1cc(OC)cc(OC)c1` (centres unmarked) [compound 219], with 100 to 1000 nM. On to `CNC1=C(c2nc3ccccc3[nH]2)C(=O)C(C)(CCOC)N1c1cc(OC)cc(OC)c1` (centres unmarked) [compound 220], for which, under setting [1], the EC50 is less than 100 nM. Still for that read-out and setting: then `COc1cc(OC)cc(N2C(N)=C(c3nc4ccccc4[nH]3)C(=O)C2CCCO)c1` (centres unmarked) [compound 221], with 100 to 1000 nM; and `COc1cc(OC)cc(N2C(N)=C(c3nc4ccccc4[nH]3)C(=O)C2CCN(C)C)c1` (centres unmarked) [compound 222], with 1000 to 10000 nM; and `COc1cc(OC)cc(N2C(N)=C(c3nc4ccccc4[nH]3)C(=O)C2CCCCO)c1` (centres unmarked) [compound 223], with 100 to 1000 nM.

`COc1cc(OC)cc(N2C(N)=C(c3nc4ccccc4[nH]3)C(=O)C23CCOCC3)c1` [compound 224]: the EC50 under setting [1] lay within 100 to 1000 nM. Same read-out and setting: in the case of `CNC1=C(c2nc3ccccc3[nH]2)C(=O)C2(CCOCC2)N1c1cc(OC)cc(OC)c1` [compound 226] it was 100 to 1000 nM; in that of `COc1cc(OC)cc(N2C(N)=C(c3nc4ccccc4[nH]3)C(=O)C2CCc2ccccc2)c1` (centres unmarked) [compound 229], 1000 to 10000 nM.

For `COc1cc(OC)cc(N2C(N)=C(c3nc4ccccc4[nH]3)C(=O)C2CCOc2ccccc2)c1` (centres unmarked) [compound 231], under setting [1], the EC50 fell in the range of 1000 to 10000 nM. On the same count and under the same terms, then `COc1cc(OC)cc(N2C(N)=C(c3nc4ccccc4[nH]3)C(=O)C2CCNc2ccccc2)c1` (centres unmarked) [compound 232], with 100 to 1000 nM; and `COc1cc(OC)cc(N2C(N)=C(c3nc4ccccc4[nH]3)C(=O)C2CCN2CCOCC2)c1` (centres unmarked) [compound 234], with 100 to 1000 nM; and `COc1cc(OC)cc(N2C(N)=C(c3nc4ccccc4[nH]3)C(=O)C2CCN2CCCC2)c1` (centres unmarked) [compound 237], with 1000 to 10000 nM. The same measure, in the same setting: in the case of `COc1cc(OC)cc(N2C(N)=C(c3nc4ccccc4[nH]3)C(=O)C2CCN)c1` (centres unmarked) [compound 238] it was 1000 to 10000 nM; in that of `COc1cc(OC)cc(N2C(N)=C(c3nc4ccccc4[nH]3)C(=O)C2CCn2ccnc2)c1` (centres unmarked) [compound 239], 100 to 1000 nM. Still for that read-out and setting: in the case of `COc1cc(OC)cc(N2C(N)=C(c3nc4ccccc4[nH]3)C(=O)[C@H]2CCO)c1` [compound 241] it was 100 to 1000 nM; in that of `COc1cc(OC)cc(N2C(N)=C(c3nc4ccccc4[nH]3)C(=O)C2CC(=O)O)c1` (centres unmarked) [compound 244], 1000 to 10000 nM.

`CNC(=O)CC1C(=O)C(c2nc3ccccc3[nH]2)=C(N)N1c1cc(OC)cc(OC)c1` (centres unmarked) [compound 246]: the EC50 under setting [1] is 1000 to 10000 nM. Take `COc1cc(OC)cc(N2C(N)=C(c3nc4ccccc4[nH]3)C(=O)C23CN(C(C)=O)C3)c1` [compound 248]: under setting [1], the EC50 lay in the range of 100 to 1000 nM. Consider `CCC(=O)N1CC2(C1)C(=O)C(c1nc3ccccc3[nH]1)=C(N)N2c1cc(OC)cc(OC)c1` [compound 249], for which the EC50 under setting [1] lay within 1000 to 10000 nM. On to `COc1cc(OC)cc(N2C(N)=C(c3nc4ccccc4[nH]3)C(=O)C23CN(C(=O)c2ccccc2)C3)c1` [compound 250], for which the EC50 under setting [1] fell in the range of 1000 to 10000 nM.

The values are drawn from patent US9580409B2, “Modulators of opioid receptors and methods of use thereof” (priority 2011, dated 2017).
